# According to patent US4757055A, “Method for selectively controlling unwanted expression or function of foreign nucleic acids in animal or mammalian cells” (The Johns Hopkins University, priority 1984, dated 1988):
# Tests used:
# E. coli B = test: Colony formation by E. coli B (Example 1); format: cell-based; details: 37° C.
# Procedure: (1) E. coli, E. coli B was grown in M-9 medium supplemented with glucose ([…]) and 1% casamino acids. The cells were harvested in mid-log phase and resuspended in 50 μL of fresh medium containing 0-160 μM oligomer at a final cell density of 1×10^4 cells/mL. The cells were incubated for 1 h at 37° C. and then diluted with 0.9 mL of medium. A 0.8-mL aliquot was added to 2.5 mL of 0.8% Bactoagar at 45° C. This solution was quickly poured onto a 100-mm plate containing solid 1.2% Bactoagar. After solidification, the plates were incubated overnight at 37° C. and the resulting colonies were counted.
# [1] = test system: transformed human fibroblast (HTB 1080) cells; test: Colony formation by transformed human fibroblasts (Example 1); format: cell-based; details: 50 μM; 37° C.
# Procedure: (2) Transformed Syrian Hamster Embryonic Fibroblasts (BP-6) and Transformed Human Fibroblasts (HTB1080). Colony formation by the fibroblasts in the presence of the methylphosphonate analogues was carried out as described by Miller et al, Biochemistry 16, 1988 (1977).
substance,measurement,setting,value
d-ApT,"% inhibition of colony formation, E. coli B",E. coli B; 50 μM,4%
same,"% inhibition of colony formation, E. coli B",E. coli B; 160 μM,5%
same,"% inhibition of colony formation, HBT 1080",[1],12%
